The values below come from patent publication US5493027A, “Anticonvulsive agents and uses thereof” (priority 1993, dated 1996).

For data set [1], the target named is T1, strychnine-insensitive glycine binding site of the NMDA receptor (Rattus norvegicus, UniProt P35439).
T1 construct: Membranes were prepared from rat cerebral cortex; from tissue; host or cells: rat cerebral cortex, "buffy coat" membranes
The data set is described as follows: Inhibition of [3H]glycine specific binding (strychnine-insensitive) in rat cerebral cortex membranes. The settings on record: 10 uM compound. How it is done:
Binding Studies--Inhibition of [^3 H]glycine specific binding was assayed using [^3 H]glycine (43 Ci/mmol) obtained from DuPont-New England Nuclear. […] Membranes were prepared from rat cerebral cortex and assays were conducted in Na-free 50 mM HEPES (Sigma) at pH 7.4. Membranes were incubated in a final volume of 1 ml with 20 nM [^3 H]glycine and a 10 uM concentration of the test compound. Although experience has shown that [^3 H]glycine binding in this preparation is strychnine insensitive, 10 uM strychnine was added to the assay mixtures to eliminate the possibility that any effects studied could be mediated through a strychnine-sensitive process. Incubation was continued for 20 min at 4° C. Non-specific binding was determined in the presence of 1 mM glycine and subtracted. All conditions were tested in triplicate in 3 different assays. Binding was terminated using a Brandel M-24C cell harvester employing rapid filtration through GF/C glass fiber filters pre-soaked in 1% (V/V) polyethylenimine. Filters were washed twice with 5 ml buffer cooled to 4° C. Radioactivity bound to the filters was determined with a Beckman LS-500OTD liquid scintillation counter.

Data set [2] concerns maximal electroshock seizures (MES). The data set is described as follows: animal or person. Format: in vivo, male Carworth Farms number-1 mice. The note with it: Mus musculus, ip. How it is done:
(§1) Compounds were screened for anticonvulsant activity in male Carworth Farms number-1 mice. Test solutions of all compounds were prepared in 30% polyethylene glycol 400, and animals were dosed intraperitoneally at either 30 minutes or 4 hours prior to testing. Testing was conducted on four mice at each of three dose levels (30, 100, and 300 mg/kg).
(§2) Maximal electroshock seizures (MES) were elicited with a 60 cycle alternatiing current of 50-mA intensity (five to seven times that necessary to evoke minimal electroshock threshold seizures). Current was delivered via corneal electrodes for 0.2 s. A drop of 0.9% saline was instilled in the eye prior to application of electrodes. Abolition of the hindlimb tonic extension component of the seizure was defined as protection in the MES test.
(§3) Biological testing--Compounds were screened for anticonvulsant activity in male Carworth Farms number-one mice. Test solutions of all compounds were prepared in 30% polyethylene glycol 400, and animals were dosed intraperitoneally at either 30 min or 4 h prior to testing. Testing was conducted on four mice at each of three dose levels (30, 100, and 300 mg/kg).
(§4) Maximal electroshock seizures (MES) were elicited with a 60 cycle alternating current of 50-mA intensity (five to seven times that necessary to evoke minimal electroshock threshold seizures). Current was delivered via corneal electrodes for 0.2 s. A drop of 0.9% saline was instilled in the eye prior to application of electrodes. Abolition of the hindlimb tonic extension component of the seizure was defined as protection in the MES test.

In data set [3] the test system is seizures induced by electroshock and pentylenetetrazole. The data set is described as follows: Anticonvulsant testing, overall (MES and Met). The format is in vivo, male Carworth Farms number-1 mice. The note with it: Mus musculus, ip, read-out: dose level with anticonvulsant activity (test not given). How it is done: as §1, §2
(§5) In the subcutaneous pentylenetetrazole (Metrazol) seizure threshold test(met), 85 mg/kg pentylenetetrazole was administered as a 0.5% solution in the posterior midline. Protection in this test was defined as a failure to observe a single episode of clonic spasms of at least 5 s duration during the 30 minute period following administration of the convulsive agent.
as §3, §4
(§6) In the subcutaneous pentylenetetrazole (Metrazol) seizure threshold test (Met), 85 mg/kg pentylenetetrazole was administered as a 0.5% solution in the posterior midline. Protection in this test was defined as a failure to observe a single episode of clonic spasms of at least 5 s duration during the 30 min period following administration of the convulsive agent.

Data set [4] is described as follows: Rotorod test for neurological deficit (TOX) in mice. The format is in vivo, male Carworth Farms number-1 mice. The note with it: mouse, in vivo, ip; Table 7, value in parentheses = maximum ineffective dose; read-out: (Maximum Ineffective) Intraperitoneal Dose, Rotorod. How it is done: as §1
Animals were also tested for neurological deficit using the rotorod. After treatment, the animal was placed on a 1 inch diameter knurled plastic rod rotating at 6 rpm. Neurologic deficit was defined as the failure of the animal to remain on the rod for 1 minute.
as §3
Animals were also tested for neurological deficit using the rotorod. After treatment, the animal was placed on a 1 inch diameter knurled plastic rod rotating at 6 rpm. Neurologic deficit was defined as the failure of the animal to remain on the rod for 1 min.
In general terms: Falling from the rotarod earlier than controls is read as motor impairment.

The test system of data set [5] is potentiating action of glycine on current elicited by NMDA. The note with it: whole cells (Huettner, 1989); cited from earlier work.
Data set [6] concerns pentylenetetrazole (Metrazol) induced seizures. The data set is described as follows: Subcutaneous pentylenetetrazole (Metrazol) seizure threshold test (Met) in mice. Format: in vivo, male Carworth Farms number-1 mice. The note with it: Table 7, value in parentheses = maximum ineffective dose. How it is done:
as §1, §5, §3, §6

The target of data set [7] is strychnine-insensitive glycine binding site. The settings on record: see also Kemp et al., 1988; cited from earlier work.
The target in data set [8] is kainate receptor. The settings on record: see also Kemp et al., 1988; unit inferred; cited from earlier work.
Data set [9] deals with anticonvulsant activity. The settings on record: Wong et al., 1986; Singh et al., 1990; cited from earlier work.
For data set [10], the target named is T1, strychnine-insensitive glycine binding site of the NMDA receptor. The settings on record: literature value of the standard; read-out: IC50 for glycine binding in this test system; cited from earlier work.
The test system of data set [11] is NMDA-associated glycine site. The note with it: Xenopus oocytes injected with rat brain mRNA (Kleckner and Dingledine, 1989); cited from earlier work.
The target of data set [12] is NMDA receptor. The settings on record: see also Kemp et al., 1988; cited from earlier work.
For data set [13], the target named is quisqualate receptor. The note with it: see also Kemp et al., 1988; cited from earlier work.

By IC50 is commonly meant the concentration at which inhibition is half-maximal.

Read-outs that look alike come from different tables or passages of the source.

On to `O=C(O)c1cc2cc(F)ccc2[nH]1` [5-F-indole-2-COOH, 5-fluoro-indole-2-carboxylic acid], for which the “[3H]glycine binding inhibition” value in [1] is “most potent inhibitor of [^3 H]glycine binding in this group”. Moreover, the minimal effective dose in data set [2] (read-out: Effective Intraperitoneal Dose, MES) amounted to 100 mg/kg; in data set [2] (read-out: dose active in MES test) it was 100 mg/kg; in data set [3] it was 100 mg/kg. Further, the NOAEL in data set [4] was found to be 300 mg/kg. In addition, the “inhibition of potentiating action of glycine on NMDA current” value in [5] is reported as “inhibit competitively the potentiating action of glycine”. In data set [6], the “(Maximum Ineffective) Intraperitoneal Dose, Met” value amounted to 300 mg/kg.
As for `O=C(O)c1cc(O)c2ccc(Cl)cc2n1` [7-Cl-Kyn, 7-chloro-kynurenic acid], the IC50 in [7] was 0.56 µM; in data set [8], above 1000 µM; in data set [10] it was 0.27 to 0.56 µM; in data set [12], 169 µM; in [13] it was 153 µM. Moreover, the “anticonvulsant activity (words, literature)” value in data set [9] is listed as “demonstrate anticonvulsant activity”. Further, the “more potent as antagonist at the NMDA-associated glycine site than at the receptor mediating kainate currents” value in data set [11] is on record as “approximately 40 fold”.
